From patent publication US9511073B2, “Aromatic amides and uses thereof” (TAXIS Pharmaceuticals, Inc., priority 2011, dated 2016) come the findings set out here.

The subject of data set [1] is Staphylococcus aureus (Isolate ID ATCC 29213). Description: Bacterial assay: MIC by broth microdilution or agar dilution (CLSI), S. aureus ATCC 29213. The format is cell-based. The following applies: Staphylococcus aureus. A digest of the protocol:
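Activity is binned (A ≤0.25 μg/mL; B >0.25–1.0; C >1.0–16; D >16 μg/mL) from MICs determined per CLSI by broth microdilution or agar dilution, on S. aureus ATCC 29213 plus an FtsZ-G196A mutant strain.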
On the technique in general: Broth dilution looks for growth in wells or tubes with falling amounts of substance.

In data set [2] the test system is FtsZ-G196A Staphylococcus aureus (Isolate ID GG/190723/sa/1.2). In words: Bacterial assay: MIC, FtsZ G196A mutant strain. The format is cell-based. On the procedure:
(§1) Compounds are tested for antimicrobial activity by susceptibility testing in liquid or on solid media. Minimum inhibitory concentrations (MICs) for compounds against each strain are determined by the broth microdilution or agar dilution method according to the guidelines of the Clinical Laboratories and Standards Institute, formerly the National Committee for Clinical Laboratory Standards (Clinical Laboratories and Standards Institute. Methods for Dilution Antimicrobial Susceptibility Tests for Bacteria That Grow Aerobically; Approved Standard—Seventh Edition. Document M7-A7. CLSI, Wayne, Pa., 2006; Clinical Laboratories and Standards Institute). The bacterial strains tested include S. aureus (Staphylococcus aureus (Isolate ID ATCC 29213)) and an FtsZ mutant of this isolate (FtsZ-G196A Staphylococcus aureus (Isolate ID GG/190723/sa/1.2)). Compound MICs were determined to be in the following activity ranges “A” activity≦0.25 μg/mL; “B” activity>0.25 μg/mL-1.0 μg/mL; “C” activity>1.0 μg/mL-16 μg/mL; “D” activity>16 μg/mL and ND=not determined. The bracketed entries indicate entantiomer(s) and their activity.
The comparative activity of selected compounds having a bromo-substituted oxazole against their corresponding non-brominated analogues is shown in Table 4.

Data set [3] relates to S. aureus ATCC 19636 (Smith). Description: MIC, staphylococcal panel. The format is cell-based. The note with it: Staphylococcus aureus, ATCC19636. On the procedure: as §1
(§2) Selected compounds were also tested against a panel of target strains and their MICs are shown in Table 3 against the gold standard Linezolid. […] The activity of the compounds observed against S. aureus was also shown to be maintained within a narrow range across the staphylococcal panel tested.

The subject of data set [4] is S. epidermidis ATCC 12228. In words: MIC, staphylococcal panel. The format is cell-based. The note with it: Staphylococcus epidermidis, ATCC12228. On the procedure:
as §1, §2

For data set [5], the system named is S. haemolyticus ATCC 29970. Description: MIC, staphylococcal panel. The format is cell-based. The following applies: Staphylococcus haemolyticus, ATCC29970. On the procedure: as §1, §2
In another data set the test system is S. hominis ATCC 27844. Description: MIC, staphylococcal panel. The format is cell-based. The note with it: Staphylococcus hominis, ATCC27844. On the procedure:
as §1, §2

For data set [6], the system named is S. lugdunensis ATCC 43809. Description: MIC, staphylococcal panel. The note with it: Staphylococcus lugdunensis, ATCC43809. The format is cell-based. On the procedure: as §1, §2
The subject of data set [7] is S. saprophyticus ATCC 43809. Description: MIC, staphylococcal panel. The format is cell-based. The following applies: Staphylococcus saprophyticus, ATCC43809. On the procedure:
as §1, §2

Another data set concerns S. warneri ATCC 49454. Description: MIC, staphylococcal panel. The format is cell-based. The note with it: Staphylococcus warneri, ATCC49454. On the procedure: as §1, §2
Data set [8] deals with S. aureus ATCC 43300 (MRSA). Description: microbe, parasite or virus in culture. The format is cell-based. The following applies: Staphylococcus aureus. On the procedure:
as §1, §2

Data set [9] relates to S. aureus ATCC BAA-44 (MDRSA). Description: microbe, parasite or virus in culture. The format is cell-based. The note with it: Staphylococcus aureus, ATCCBAA44. On the procedure:
as §1, §2

A short description of data set [10]: Pharmacokinetic assay: plasma concentration by LC/MS/MS after single intravenous or peroral dose of 3 mg/kg. The note with it: 3 mg/kg IV dosing in mice. The format is in vivo. On the procedure: The pharmacokinetic profiles of selected comparator compounds A-N in Table 6 and compounds of the invention were determined by measuring the compound concentration in plasma by LC/MS/MS following a single intravenous or peroral administration of the compounds at a dose of 3 mg/kg. The concentrations described are the mean plasma concentrations at each time point from three animals. Intravenous dose formulation was administered as a single bolus dose through the tail vein. Oral dose formulation was administered to animals by an oral gavage needle. In both cases the dose volume was 5.0 mL/kg. Blood was collected from anesthetized mice through a capillary guided into the retro-orbital plexus. The collected blood was centrifuged to obtain plasma and the compounds extracted into methanol prior to determining the compound concentration by LC/MS/MS. The results are shown graphically in FIG. 1 and for the AUC and CL parameters in Table 6.

The mark [11] stands for this setting: ATCC29213, Staphylococcus aureus ATCC 29213, Table 3 panel.
[12] abbreviates: ATCC29213, read-out: MIC (μg/mL) S. aureus (ATCC29213), Table 5, racemate and enantiomers.
Where [13] appears, read: ATCC29213, read-out: S. aureus MIC (μg/mL) Activity Range, S. aureus (ATCC29213).
[14] abbreviates: read-out: MIC (μg/mL) G196A mutant strain.

As a reminder, the AUC is the area under the concentration-time curve, a measure of exposure.

The structures appear in SMILES notation. ≈ marks a conversion by molar mass, not a printed value. Like-named read-outs stand apart in the source and are kept apart here. Where only a bound is given, the exact number is not on record here.

As to `NC(=O)c1c(F)ccc(O[C@H](CO)c2nc(-c3ccc(C(F)(F)F)cc3)c(Br)o2)c1F` (single isomer, unassigned) [Compound 38B], the MIC is 0.125 µg/mL (≈ 0.246 µM) in data set [1] (setting [11]); 0.125 µg/mL (≈ 0.246 µM) in data set [1] (setting [12]); less than 0.25 µg/mL in [1] (setting [13]); 2 µg/mL (≈ 3.94 µM) in data set [2] (setting [14]); 0.125 mg/L (≈ 0.246 µM) in data set [3]; 0.125 mg/L (≈ 0.246 µM) in data set [4]. Moreover, the MIC in data set [5] is 0.125 mg/L (≈ 0.246 µM); with S. hominis ATCC 27844, 0.125 mg/L (≈ 0.246 µM); in [6], 0.25 mg/L (≈ 0.493 µM); in data set [7], 0.06 mg/L (≈ 0.118 µM); against S. warneri ATCC 49454, 0.25 mg/L (≈ 0.493 µM); in [8], 0.125 mg/L (≈ 0.246 µM). The MIC in [9] was determined as 0.125 mg/L (≈ 0.246 µM). In data set [10] (mouse, plasma), this molecule had a clearance of 0.72 L/h/kg. Further, the AUC in [10] (mouse, plasma, read-out: AUC) amounted to 4 µg·h/mL.

On to `NC(=O)c1c(F)ccc(OC(CO)c2nc(-c3ccc(F)cc3F)c(Br)o2)c1F` (racemic) [Compound 233, 3-(1-(5-bromo-4-(2,4-difluorophenyl)oxazol-2-yl)-2-hydroxyethoxy)-2,6-difluorobenzamide], for which the MIC is 0.25 µg/mL (≈ 0.526 µM) in [1] (setting [11]); 0.25 µg/mL (≈ 0.526 µM) in [1] (setting [12]); less than 0.25 µg/mL in data set [1] (setting [13]); 8 µg/mL (≈ 16.8 µM) in data set [2] (setting [14]); 0.25 mg/L (≈ 0.526 µM) in data set [3]; 0.5 mg/L (≈ 1.05 µM) in data set [4]. In addition, the MIC (in data set [5]; against S. hominis ATCC 27844; in [6]; in data set [7]; in the data set with S. warneri ATCC 49454; in data set [8]) was 0.5 mg/L (≈ 1.05 µM) in each case. For the same molecule, the MIC in [9] was determined as 0.25 mg/L (≈ 0.526 µM). This molecule also showed a clearance in data set [10] (mouse, plasma) of 1.08 L/h/kg. For the same molecule, in data set [10] (mouse, plasma, read-out: AUC), the AUC turned out to be 2.3 µg·h/mL.

Turning to `CC(=O)NC[C@H]1CN(c2ccc(N3CCOCC3)c(F)c2)C(=O)O1` [Linezolid, reference compound], the MIC in data set [1] (ATCC29213, Staphylococcus aureus ATCC 29213, Table 3 panel, read-out: MIC) was found to be 2 µg/mL (≈ 5.93 µM); in [3] (S. aureus ATCC 19636 (Smith), read-out: MIC), 2 mg/L (≈ 5.93 µM); in data set [4] (S. epidermidis ATCC 12228, read-out: MIC), 1 mg/L (≈ 2.96 µM); in [5] (S. haemolyticus ATCC 29970, read-out: MIC) it was 1 mg/L (≈ 2.96 µM); with S. hominis ATCC 27844 (S. hominis ATCC 27844, read-out: MIC), 1 mg/L (≈ 2.96 µM); in data set [6] (S. lugdunensis ATCC 43809, read-out: MIC) it was 1 mg/L (≈ 2.96 µM). Besides, the MIC in data set [7] (S. saprophyticus ATCC 43809, read-out: MIC) was 2 mg/L (≈ 5.93 µM); in the data set with S. warneri ATCC 49454 (S. warneri ATCC 49454, read-out: MIC) it was 2 mg/L (≈ 5.93 µM); in data set [8] (S. aureus ATCC 43300 (MRSA), read-out: MIC), 2 mg/L (≈ 5.93 µM); in data set [9] (S. aureus ATCC BAA-44 (MDRSA), read-out: MIC), 1 mg/L (≈ 2.96 µM).

`NC(=O)c1c(F)ccc(O[C@@H](CO)c2nc(-c3ccc(C(F)(F)F)cc3)c(Br)o2)c1F` (single isomer, unassigned) [Compound 38A]: the MIC in [1] (setting [12]) is 16 µg/mL (≈ 31.5 µM); in data set [1] (setting [13]), 1 to 16 µg/mL (≈ 1.97 to 31.5 µM); in data set [2] (setting [14]) it was 64 µg/mL (≈ 126 µM). The clearance in data set [10] (mouse, plasma) was determined as 0.36 L/h/kg. In [10] (mouse, plasma, read-out: AUC), the AUC stood at 7.8 µg·h/mL.

For the molecule `NC(=O)c1c(F)ccc(OC(CO)c2nc(-c3ccc(C(F)(F)F)cc3)c(Br)o2)c1F` (racemic) [Compound 38, 3-(1-(5-bromo-4-(4-(trifluoromethyl)phenyl)oxazol-2-yl)-2-hydroxyethoxy)-2,6-difluorobenzamide], the values for the MIC in [1] (setting [12]), in data set [1] (setting [13]) and in data set [2] (setting [14]) were 0.25 µg/mL (≈ 0.493 µM), less than 0.25 µg/mL and 4 µg/mL (≈ 7.89 µM), respectively. For the same molecule, in data set [10], the “AUC” value was found to be 6.7 µg·h/mL. Further, the clearance in data set [10] (mouse, plasma) stood at 0.42 L/h/kg.

Take `NC(=O)c1c(F)ccc(OC(CNC(=O)c2ccccc2)c2nc(-c3ccc(C(F)(F)F)cc3)c(Br)o2)c1F` (stereo not shown) [Compound 292, 3-(2-benzamido-1-(5-bromo-4-(4-(trifluoromethyl)phenyl)oxazol-2-yl)ethoxy)-2,6-difluorobenzamide]: the figures for the MIC in [1] (setting [13]) and in data set [2] (read-out: MIC (μg/mL) FtsZ G196A mutant strain) were less than 0.25 µg/mL and 1 µg/mL (≈ 1.64 µM), respectively.

Take `COc1ccc(-c2nc(C(C)Oc3ccc(F)c(C(N)=O)c3F)oc2Br)cc1` (racemic) [Compound 5]: the figures for the MIC in data set [1] (setting [12]), in data set [1] (setting [13]) and in [2] (setting [14]) were 1 µg/mL (≈ 2.21 µM), 0.25 to 1 µg/mL (≈ 0.552 to 2.21 µM) and 32 µg/mL (≈ 70.6 µM), respectively.
